According to patent US12286404B2, “Solid state forms of Mitapivat and process for preparation thereof” (TEVA PHARMACEUTICALS INTERNATIONAL GMBH, priority 2020, dated 2025):
Where a name gives a salt, the structure may show the parent alone.

What was measured:
Type in all cases: physicochemical
Hygroscopicity = assay: Hygroscopicity
[1] = Storage stability under humidity/temperature conditions; settings: for stability under regular conditions: 60% RH at RT; for stability under regular conditions / stability under accelerated conditions: for at least one month; for stability under accelerated conditions: 75% RH at 40° C.; for stability up to 80% RH: up to 80% RH at RT, for at least one week
[2] = Stability under stress conditions (heating, grinding, high pressure); settings: for stability under stress conditions: heating, grinding and high pressure

Row | hygroscopicity (Hygroscopicity) | stability under regular conditions [1] | stability under accelerated conditions [1] | stability under stress conditions [2] | stability up to 80% RH [1] | stability under grinding ([2]; grinding) | Molecule
1 | non-hygroscopic | polymorphically and chemically stable | polymorphically and chemically stable | stable |  |  | Mitapivat hemisulfate:ascorbic acid
2 | non-hygroscopic |  |  |  | stable | stable | Mitapivat phosphate [Form P1 of Mitapivat phosphate]
3 |  |  |  |  | stable |  | O=C(c1ccc(NS(=O)(=O)c2cccc3cccnc23)cc1)N1CCN(CC2CC2)CC1 [Form III of Mitapivat HCl, Mitapivat HCl]
4 | non-hygroscopic | stable | stable | stable |  |  | O=C(c1ccc(NS(=O)(=O)c2cccc3cccnc23)cc1)N1CCN(CC2CC2)CC1 [Form I of Mitapivat HCl, Mitapivat HCl]
